# Source: patent US8940909B2, “Indicator platform” (Biosynth AG, priority 2009, dated 2015)
# Columns and labels:
# Test in all cases: IO staining of colonies of beta-D-galactosidase positive/negative bacteria (Table IVb)
# Type in all cases: cell-based
# [1] = test system: Streptococcus agalactiae 195; details: Streptococcus agalactiae strain 195, b-gal −; 24 h on Nutrient Agar, 150 mg/l indicator, 100 mg/l IPTG; as to C: Color of colonies: key: −: absent; +/−: weak; +: strong; ++: very strong; as to F: Fluorescence of colonies: key: −: absent; +/−: weak; +: strong; ++: very strong
# Salmonella bongori 81 = details: Salmonella bongori strain 81, b-gal +; 24 h on Nutrient Agar, 150 mg/l indicator, 100 mg/l IPTG
# [2] = test system: Salmonella enteritidis 43; details: Salmonella enteritidis strain 43, b-gal −; 24 h on Nutrient Agar, 150 mg/l indicator, 100 mg/l IPTG; also: key: −: absent; +/−: weak; +: strong; ++: very strong
# [3] = test system: Staphylococcus intermedius 31; details: Staphylococcus intermedius strain 31, b-gal +; 24 h on Nutrient Agar, 150 mg/l indicator, 100 mg/l IPTG
# Escherichia coli 61 = details: Escherichia coli strain 61, b-gal +; 24 h on Nutrient Agar, 150 mg/l indicator, 100 mg/l IPTG
# Citrobacter freundii 181 = details: Citrobacter freundii strain 181, b-gal +; 24 h on Nutrient Agar, 150 mg/l indicator, 100 mg/l IPTG
# Escherichia coli 270 = details: Escherichia coli strain 270, b-gal +; 24 h on Nutrient Agar, 150 mg/l indicator, 100 mg/l IPTG
# Enterobacter cloacae 245 = details: Enterobacter cloacae strain 245, b-gal +; 24 h on Nutrient Agar, 150 mg/l indicator, 100 mg/l IPTG
# Shigella boydii 135 = details: Shigella boydii strain 135, b-gal −; 24 h on Nutrient Agar, 150 mg/l indicator, 100 mg/l IPTG
# Salmonella illa 73 = details: Salmonella illa strain 73, b-gal +; 24 h on Nutrient Agar, 150 mg/l indicator, 100 mg/l IPTG
# [4] = test system: Escherichia coli (O157:H7) 60; details: Escherichia coli (O157:H7) strain 60, b-gal +; 24 h on Nutrient Agar, 150 mg/l indicator, 100 mg/l IPTG
# Shigella sonnei 133 = details: Shigella sonnei strain 133, b-gal +/−; 24 h on Nutrient Agar, 150 mg/l indicator, 100 mg/l IPTG
# Aeromonas hydrophila 292 = details: Aeromonas hydrophila strain 292, b-gal +; 24 h on Nutrient Agar, 150 mg/l indicator, 100 mg/l IPTG
# [5] = test system: Enterobacter aerogenes 242; details: Enterobacter aerogenes strain 242, b-gal +; 24 h on Nutrient Agar, 150 mg/l indicator, 100 mg/l IPTG; as to C: Color of colonies: key: −: absent; +/−: weak; +: strong; ++: very strong; as to G: Growth of colonies: key: −: absent; +/−: weak; +: strong; ++: very strong
# [6] = test system: Yersinia enterocolitica 175; details: Yersinia enterocolitica strain 175, b-gal +/−; 24 h on Nutrient Agar, 150 mg/l indicator, 100 mg/l IPTG; as to G: Growth of colonies: key: −: absent; +/−: weak; +: strong; ++: very strong
# Staphylococcus aureus 2 = details: Staphylococcus aureus strain 2, b-gal −, 24 h on Nutrient Agar, 150 mg/l indicator, 100 mg/l IPTG; for C: Color of colonies: footnote 2: S. aureus natural color
# Serratia marcescens 40 = details: Serratia marcescens strain 40, b-gal +; 24 h on Nutrient Agar, 150 mg/l indicator, 100 mg/l IPTG
# [7] = test system: Pseudomonas aeruginosa 168; details: Pseudomonas aeruginosa strain 168, b-gal −, 24 h on Nutrient Agar, 150 mg/l indicator, 100 mg/l IPTG; for F: Fluorescence of colonies: footnote 1: blue autofluorescence; as to C: Color of colonies: key: −: absent; +/−: weak; +: strong; ++: very strong; as to G: Growth of colonies: key: −: absent; +/−: weak; +: strong; ++: very strong
# [8] = test system: Klebsiella pneumoniae 164; details: Klebsiella pneumoniae strain 164, b-gal +; 24 h on Nutrient Agar, 150 mg/l indicator, 100 mg/l IPTG; as to C: Color of colonies: key: −: absent; +/−: weak; +: strong; ++: very strong; as to G: Growth of colonies: key: −: absent; +/−: weak; +: strong; ++: very strong
# Bacillus subtilis 65 = details: Bacillus subtilis strain 65, b-gal −; 24 h on Nutrient Agar, 150 mg/l indicator, 100 mg/l IPTG
# [9] = test system: Shigella dysenteriae Serovar 1 131; details: Shigella dysenteriae Serovar 1 strain 131, b-gal +/−; 24 h on Nutrient Agar, 150 mg/l indicator, 100 mg/l IPTG
compound,measurement,setting,value
"5-Bromo-4-chloro-1H-indol-3-yl-beta-D-galactopyranoside [Indicator I4a, reference compound]",C: Color of colonies,[1],−
same,F: Fluorescence of colonies,[1],−
same,G: Growth of colonies,[1],+/−
same,C: Color of colonies,Salmonella bongori 81,+/−
same,F: Fluorescence of colonies,Salmonella bongori 81,−
same,G: Growth of colonies,Salmonella bongori 81,+
same,C: Color of colonies,[2],−
same,F: Fluorescence of colonies,[2],−
same,G: Growth of colonies,[2],+
same,C: Color of colonies,[3],+
same,F: Fluorescence of colonies,[3],−
same,G: Growth of colonies,[3],+
same,C: Color of colonies,Escherichia coli 61,++
same,F: Fluorescence of colonies,Escherichia coli 61,−
same,G: Growth of colonies,Escherichia coli 61,+
same,C: Color of colonies,Citrobacter freundii 181,+
same,F: Fluorescence of colonies,Citrobacter freundii 181,−
same,G: Growth of colonies,Citrobacter freundii 181,+
same,C: Color of colonies,Escherichia coli 270,++
same,F: Fluorescence of colonies,Escherichia coli 270,−
same,G: Growth of colonies,Escherichia coli 270,+
same,C: Color of colonies,Enterobacter cloacae 245,++
same,F: Fluorescence of colonies,Enterobacter cloacae 245,−
same,G: Growth of colonies,Enterobacter cloacae 245,+
same,C: Color of colonies,Shigella boydii 135,−
same,F: Fluorescence of colonies,Shigella boydii 135,−
same,G: Growth of colonies,Shigella boydii 135,+
same,C: Color of colonies,Salmonella illa 73,−
same,F: Fluorescence of colonies,Salmonella illa 73,−
same,G: Growth of colonies,Salmonella illa 73,+
same,C: Color of colonies,[4],++
same,F: Fluorescence of colonies,[4],−
same,G: Growth of colonies,[4],+
same,C: Color of colonies,Shigella sonnei 133,+
same,F: Fluorescence of colonies,Shigella sonnei 133,−
same,G: Growth of colonies,Shigella sonnei 133,+
same,C: Color of colonies,Aeromonas hydrophila 292,+
same,F: Fluorescence of colonies,Aeromonas hydrophila 292,−
same,G: Growth of colonies,Aeromonas hydrophila 292,+
same,C: Color of colonies,[5],++
same,F: Fluorescence of colonies,[5],−
same,G: Growth of colonies,[5],+
same,C: Color of colonies,[6],−
same,F: Fluorescence of colonies,[6],−
same,G: Growth of colonies,[6],+
same,F: Fluorescence of colonies,Staphylococcus aureus 2,−
same,G: Growth of colonies,Staphylococcus aureus 2,+
same,C: Color of colonies,Staphylococcus aureus 2,y^2
same,C: Color of colonies,Serratia marcescens 40,+
same,F: Fluorescence of colonies,Serratia marcescens 40,−
same,G: Growth of colonies,Serratia marcescens 40,+
same,C: Color of colonies,[7],−
same,G: Growth of colonies,[7],+
same,F: Fluorescence of colonies,[7],+^1
same,C: Color of colonies,[8],++
same,F: Fluorescence of colonies,[8],−
same,G: Growth of colonies,[8],+
same,C: Color of colonies,Bacillus subtilis 65,−
same,F: Fluorescence of colonies,Bacillus subtilis 65,−
same,G: Growth of colonies,Bacillus subtilis 65,+
same,C: Color of colonies,[9],−
same,F: Fluorescence of colonies,[9],−
same,G: Growth of colonies,[9],+
"O=C(c1ccccc1)c1ccccc1-n1cc(O[C@@H]2O[C@H](CO)[C@H](O)[C@H](O)[C@H]2O)c2ccc(Cl)cc21 [Indicator I21a, 1-(2-Benzoylphenyl)-6-chloro-1H-indol-3-yl-beta-D-galactopyranoside]",C: Color of colonies,[1],−
same,F: Fluorescence of colonies,[1],−
same,G: Growth of colonies,[1],+/−
same,C: Color of colonies,Salmonella bongori 81,+/−
same,F: Fluorescence of colonies,Salmonella bongori 81,+/−
same,G: Growth of colonies,Salmonella bongori 81,+
same,C: Color of colonies,[2],−
same,F: Fluorescence of colonies,[2],−
same,G: Growth of colonies,[2],+
same,C: Color of colonies,[3],+/−
same,F: Fluorescence of colonies,[3],+/−
same,G: Growth of colonies,[3],+/−
same,C: Color of colonies,Escherichia coli 61,+
same,F: Fluorescence of colonies,Escherichia coli 61,+
same,G: Growth of colonies,Escherichia coli 61,+
same,C: Color of colonies,Citrobacter freundii 181,+
same,F: Fluorescence of colonies,Citrobacter freundii 181,+
same,G: Growth of colonies,Citrobacter freundii 181,+
same,C: Color of colonies,Escherichia coli 270,++
same,F: Fluorescence of colonies,Escherichia coli 270,+
same,G: Growth of colonies,Escherichia coli 270,+
same,C: Color of colonies,Enterobacter cloacae 245,+
same,F: Fluorescence of colonies,Enterobacter cloacae 245,+
same,G: Growth of colonies,Enterobacter cloacae 245,+
same,C: Color of colonies,Shigella boydii 135,−
same,F: Fluorescence of colonies,Shigella boydii 135,−
same,G: Growth of colonies,Shigella boydii 135,+
same,C: Color of colonies,Salmonella illa 73,−
same,F: Fluorescence of colonies,Salmonella illa 73,−
same,G: Growth of colonies,Salmonella illa 73,+
same,C: Color of colonies,[4],+
same,F: Fluorescence of colonies,[4],+
same,G: Growth of colonies,[4],+
same,C: Color of colonies,Shigella sonnei 133,+
same,F: Fluorescence of colonies,Shigella sonnei 133,+
same,G: Growth of colonies,Shigella sonnei 133,+
same,C: Color of colonies,Aeromonas hydrophila 292,+
same,F: Fluorescence of colonies,Aeromonas hydrophila 292,+
same,G: Growth of colonies,Aeromonas hydrophila 292,+
same,C: Color of colonies,[5],+
same,F: Fluorescence of colonies,[5],+
same,G: Growth of colonies,[5],+
same,C: Color of colonies,[6],−
same,F: Fluorescence of colonies,[6],+/−
same,G: Growth of colonies,[6],+
same,F: Fluorescence of colonies,Staphylococcus aureus 2,−
same,G: Growth of colonies,Staphylococcus aureus 2,+/−
same,C: Color of colonies,Staphylococcus aureus 2,−
same,C: Color of colonies,Serratia marcescens 40,++
same,F: Fluorescence of colonies,Serratia marcescens 40,+
same,G: Growth of colonies,Serratia marcescens 40,+
same,C: Color of colonies,[7],−
same,G: Growth of colonies,[7],+
same,F: Fluorescence of colonies,[7],+^1
same,C: Color of colonies,[8],+
same,F: Fluorescence of colonies,[8],+
same,G: Growth of colonies,[8],+
same,C: Color of colonies,Bacillus subtilis 65,−
same,F: Fluorescence of colonies,Bacillus subtilis 65,−
same,G: Growth of colonies,Bacillus subtilis 65,+/−
same,C: Color of colonies,[9],−
same,F: Fluorescence of colonies,[9],−
same,G: Growth of colonies,[9],+
